Article PMC6632053, “Incorporation of Putative Helix-Breaking Amino Acids in the Design of Novel Stapled Peptides: Exploring Biophysical and Cellular Permeability Properties” (Molecules, 2019)
Read-outs that look alike come from different tables or passages of the source. Bridge positions count the residues as written; N and C are the ends. Square brackets hold non-standard residues; d marks the D form. Peptide text beside a SMILES is read from it. R8 = C=CCCCCCC[C@@](C)(N)C(=O)O; Cba = N[C@@H](CC1CCC1)C(=O)O; S5 = C=CCCC[C@](C)(N)C(=O)O

Key:
[1] = test system: p53 responsive β-lactamase reporter in HCT116 cells; assay: p53 beta-lactamase reporter gene cellular functional assay; type: cell-based
Summary of the method: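 HCT116 cells stably carrying a p53-responsive β-lactamase reporter seeded 8000/well overnight, then switched to Opti-MEM with 0% or 10% FBS for compound treatment at 0.5% DMSO final. β-Lactamase activity measured with ToxBLAzer Dual Screen on a multiplate reader.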

[2] = Circular dichroism (CD) α-helicity; type: physicochemical; settings: for Helicity (%): CD of free peptide, 25 °C, 1 mM Hepes pH 7.4, 5% methanol
Summary of the method: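 Peptide dried from methanol, reconstituted to 1 mM in 1 mM Hepes pH 7.4 with 5% methanol; concentration by A280. CD spectra 300–190 nm, 0.2 cm path, 25 °C, duplicates; converted to mean residue ellipticity and deconvoluted for secondary structure.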

human Mdm2 1–125 = molecular target: T1, human Mdm2 1–125 (Homo sapiens, UniProt Q00987); assay: Mdm2 binding assay (competitive fluorescence anisotropy/polarization); settings: competitive fluorescence polarization, read-out: Mdm2 (nM), Mdm2 binding (Kd)
T1 construct: GST (N); His6 (internal); TEV cleavage site ENLYFQG (internal); made in house; host or cells: Escherichia coli BL21 (DE3) Rosetta T1R
T1 sequence (Q00987 with tags, fused parts or gaps): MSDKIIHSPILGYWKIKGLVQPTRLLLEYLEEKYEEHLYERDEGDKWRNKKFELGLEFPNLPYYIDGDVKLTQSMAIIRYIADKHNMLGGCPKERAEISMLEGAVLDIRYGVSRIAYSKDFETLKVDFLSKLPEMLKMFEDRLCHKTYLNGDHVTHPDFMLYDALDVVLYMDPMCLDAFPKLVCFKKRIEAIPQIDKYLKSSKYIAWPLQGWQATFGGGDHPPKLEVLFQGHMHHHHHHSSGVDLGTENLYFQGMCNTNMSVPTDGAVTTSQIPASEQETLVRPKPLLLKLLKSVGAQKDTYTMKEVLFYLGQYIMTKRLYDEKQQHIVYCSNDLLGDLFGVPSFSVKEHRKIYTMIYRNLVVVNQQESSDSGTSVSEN

[3] = Whole cell homogenate stability; type: in vitro ADME; settings: 1 μM peptide, 37 °C, up to 22 h
Description: Peptides at a concentration of 1 μM were incubated at 37 °C with HCT116 whole cell homogenates prepared from 1 million lysed cells/mL. The reaction was stopped at 0, 1, 2, 4, and 22 h with an organic solvent followed by centrifugation. The resulting supernatant was injected into LC/MS for detection of the tested peptide. The remaining percentage of each compound was normalized to the 0 h amount and reported. As a positive control, we used the ONEG peptide with the sequence […] [28].

[4] = molecular target: T2, recombinant human Mdm2 protein (amino acids 1–125) (Homo sapiens, UniProt Q00987); assay: Isothermal titration calorimetry (ITC); type: binding; settings: Figure 2A middle panel
T2 construct: purified recombinant human Mdm2 protein (amino acids 1–125); made in house
T2 sequence (Q00987 1-125): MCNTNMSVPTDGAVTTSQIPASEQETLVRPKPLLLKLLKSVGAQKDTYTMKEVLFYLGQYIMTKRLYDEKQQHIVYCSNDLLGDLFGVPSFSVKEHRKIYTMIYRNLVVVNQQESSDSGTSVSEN
Description: Overnight dialysis of protein and peptides were carried out in buffer containing 1× phosphate-buffered saline (PBS) pH 7.2, 3% DMSO, and 0.001% Tween-20. […] Reverse ITC (200 µM of Mdm2 protein titrated into 20 µM of peptide) was carried out for peptides that are insoluble at high concentrations. All experiments were performed in duplicates using the MicroCal PEAQ-ITC Automated system. Data analysis was carried out using the MicroCal PEAQ-ITC Analysis Software.

biotinylated Mdm2 = molecular target: T3, biotinylated Mdm2 (Homo sapiens, UniProt Q00987); assay: Surface plasmon resonance (SPR); type: binding; settings: Figure 2A right panel, 25 °C
T3 construct: made in house
T3 sequence (Q00987 whole entry): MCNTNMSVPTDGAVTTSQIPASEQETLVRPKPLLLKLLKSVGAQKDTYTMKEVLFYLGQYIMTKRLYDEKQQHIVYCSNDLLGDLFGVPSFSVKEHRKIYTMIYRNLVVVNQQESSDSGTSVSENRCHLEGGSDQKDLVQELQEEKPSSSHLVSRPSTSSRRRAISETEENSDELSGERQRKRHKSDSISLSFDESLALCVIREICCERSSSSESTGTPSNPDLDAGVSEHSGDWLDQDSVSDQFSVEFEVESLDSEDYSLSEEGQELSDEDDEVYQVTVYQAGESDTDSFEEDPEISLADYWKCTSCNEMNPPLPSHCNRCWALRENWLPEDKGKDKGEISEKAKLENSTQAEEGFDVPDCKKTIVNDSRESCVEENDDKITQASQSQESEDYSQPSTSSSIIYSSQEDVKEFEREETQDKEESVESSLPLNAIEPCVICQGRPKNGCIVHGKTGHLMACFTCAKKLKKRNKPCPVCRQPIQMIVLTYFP
Description: SPR experiments were performed with Biacore T100 (GE Healthcare) at 25 °C. […] The SPR buffer consisted of 50 mM Tris pH 7.4, 150 mM NaCl, 1 mM DTT, 0.05% Tween 20, and 3% DMSO. The CM5 chip was first conditioned with 100 mM HCl, followed by 0.1% SDS, 50 mM NaOH, and then water, all performed twice with 6 sec injection at a flow rate of 100 µL/min. With the flow rate set to 10 µL/min, streptavidin (S4762, Sigma-Aldrich) was immobilized on the conditioned chip through amine coupling, as described in the Biacore manual. Excess protein was removed by 30 s injection of the wash solution (50 mM NaOH + 1 M NaCl) at least eight times. The immobilized level was ~3000 RU. The biotinylated Mdm2 was captured by streptavidin, up to a level of ~400 RU. A flow cell consisting of only streptavidin was used as the reference surface. Using a flow rate of 30 µL/min, peptides dissolved in the SPR buffer were injected for 180 s. The dissociation was monitored for 300 s. […] After the run, responses from the target protein surface were transformed by: (i) correcting with the DMSO calibration curve, (ii) subtracting the responses obtained from the reference surface, and (iii) subtracting the responses of the buffer injections from those of peptide injections. The last step is known as double referencing, which corrects the systematic artefacts. […]

[5] = Lactate dehydrogenase (LDH) release assay; type: cell-based; settings: membrane integrity, HCT116
Description: HCT116 cells were seeded into a 384-well plate at a density of 8000 cells per well. Cells were maintained in McCoy’s 5A Medium with 10% fetal bovine serum (FBS), Blasticidin, and Penicillin/Streptomycin. The cells were incubated overnight, followed by the removal of cell media and the addition of Opti-MEM Medium without FBS. Cells were then treated with peptides for 4 or 16 h in Opti-MEM, either in 10% FBS or in serum free conditions. The final concentration of DMSO was 0.5%. Lactate dehydrogenase release was detected using the CytoTox-ONE Homogenous Membrane Integrity Assay Kit (Promega), as per the manufacturer’s instructions. Measurements were carried out using the Tecan plate reader. Maximum LDH release was defined as the amount of LDH released as induced by the lytic peptide (iDNA79) and used to normalize the results.

[6] = Table 1, p53 reporter assay, HCT116, read-out: Cellular (µM), cellular activity (EC50)

SMILES | EC50 [1, 6] [µM] | Helicity (%) ([2]; Table 1) | Kd (human Mdm2 1–125; Table 1) [nM] | stability in whole cell homogenate [3] | further results
CC(=O)N[C@@H](CC(C)C)C(=O)N[C@H](C(=O)N[C@@H](Cc1ccccc1)C(=O)NC(C)(C)C(=O)N[C@@H](CCC(=O)O)C(=O)N[C@@H](Cc1ccc(O)cc1)C(=O)N[C@@H](Cc1c[nH]c2ccccc12)C(=O)N[C@@H](CCC(N)=O)C(=O)N[C@@H](CC(C)C)C(=O)N[C@@H](CC1CCC1)C(=O)NC(C)(C)C(=O)N[C@@H](CO)C(=O)N[C@@H](C)C(=O)N[C@@H](C)C(N)=O)[C@@H](C)O [Linear Parent (MP-189), Ac–Leu–Thr–Phe–Aib–Glu–Tyr–Trp–Gln–Leu–Cba–Aib–Ser–Ala–Ala–NH2] | 33.5 | 35.3 | 43.1 | moderate stabilities | 
CC(=O)N[C@@H](CC(C)C)C(=O)N[C@H](C(=O)N[C@@H](Cc1ccccc1)C(=O)N[C@]1(C)CCCCCCC=CCCC[C@@](C)(C(=O)N[C@@H](CO)C(=O)N[C@@H](C)C(=O)N[C@@H](C)C(N)=O)NC(=O)[C@H](CC2CCC2)NC(=O)[C@H](CC(C)C)NC(=O)[C@H](CCC(N)=O)NC(=O)[C@H](Cc2c[nH]c3ccccc23)NC(=O)[C@H](Cc2ccc(O)cc2)NC(=O)[C@H](CCC(=O)O)NC1=O)[C@@H](C)O [MP-292] | 0.54 | 32.8 | 18.6 | minimal degradation | Kd [4]: < 0.02 µM; EC50 ([1]; 0% serum, read-out: p53 reporter assay EC50): 0.5 µM; EC50 ([1]; 2% serum, read-out: p53 reporter assay EC50): 0.7 µM; EC50 ([1]; 10% serum, read-out: p53 reporter assay EC50): 4.2 µM; Kd (biotinylated Mdm2): 0.0014 µM; EC50 [5]: > 50 µM
CC(=O)N[C@@H](CC(C)C)C(=O)N[C@H](C(=O)N[C@@H](Cc1ccccc1)C(=O)N[C@]1(C)CCCCCCC=CCCC[C@@](C)(C(=O)N[C@@H](CO)C(=O)N[C@@H](C)C(=O)N[C@@H](C)C(N)=O)NC(=O)[C@H](CC2CCC2)NC(=O)[C@H](CC(C)C)NC(=O)[C@H](CCC(N)=O)NC(=O)[C@H](Cc2c[nH]c3ccccc23)NC(=O)[C@H](C)NC(=O)[C@H](CCC(=O)O)NC1=O)[C@@H](C)O [Peptide Y6A] (Ac-LTF[R8]EAWQL[Cba][S5]SAA-NH2; staple 4-11) | 0.55 | 50.3 | 38.9 |  | 
CC(=O)N[C@@H](CCCCN=[N+]=[N-])C(=O)NCCC(=O)N[C@@H](CC(C)C)C(=O)N[C@H](C(=O)N[C@@H](Cc1ccccc1)C(=O)N[C@]1(C)CCCCCCC=CCCC[C@@](C)(C(=O)N[C@@H](CO)C(=O)N[C@@H](C)C(=O)N[C@@H](C)C(N)=O)NC(=O)[C@H](CC2CCC2)NC(=O)[C@H](CCC(N)=O)N(C)C(=O)[C@H](C)NC(=O)[C@H](Cc2c[nH]c3ccccc23)NC(=O)[C@H](Cc2ccc(O)cc2)NC(=O)[C@H](CCC(=O)O)NC1=O)[C@@H](C)O [Q9(N-methyl L-Gln)] |  |  |  |  | EC50 ([1]; Table 2, p53 reporter assay, HCT116, read-out: Cellular (µM), cellular activity (EC50)): > 50 µM; α-helicity by CD [2]: < 30%; Helicity (%) ([2]; Table 2): 20.2%; Kd (human Mdm2 1–125; Table 2): 211 nM
CC(=O)N[C@@H](CC(C)C)C(=O)N[C@H](C(=O)N[C@@H](Cc1ccccc1)C(=O)N[C@]1(C)CCCCCCC=CCCC[C@@](C)(C(=O)N[C@H](CO)C(=O)N[C@@H](C)C(=O)N[C@@H](C)C(N)=O)NC(=O)[C@H](CC2CCC2)NC(=O)[C@H](CC(C)C)NC(=O)[C@H](CCC(N)=O)NC(=O)[C@H](Cc2c[nH]c3ccccc23)NC(=O)[C@H](Cc2ccc(O)cc2)NC(=O)[C@H](CCC(=O)O)NC1=O)[C@@H](C)O [S12(D-Ser)] | 1.2 | 41.2 | 8.6 |  | 

More lines, main results first:

EC50 [1, 6] [µM] | Helicity (%) ([2]; Table 1) | Kd (human Mdm2 1–125; Table 1) [nM] | SMILES | stability in whole cell homogenate [3] | further results
> 50 | 21.4 | 135 | CC(=O)N[C@@H](CC(C)C)C(=O)N[C@H](C(=O)N[C@@H](Cc1ccccc1)C(=O)NC(C)(C)C(=O)N[C@H](CCC(=O)O)C(=O)N[C@@H](Cc1ccc(O)cc1)C(=O)N[C@@H](Cc1c[nH]c2ccccc12)C(=O)N[C@@H](CCC(N)=O)C(=O)N[C@@H](CC(C)C)C(=O)N[C@@H](CC1CCC1)C(=O)NC(C)(C)C(=O)N[C@@H](CO)C(=O)N[C@@H](C)C(=O)N[C@@H](C)C(N)=O)[C@@H](C)O [Linear E5(D-Glu)] | decreased stability | 
2.1 | 27.1 | 22 | CC(=O)N[C@@H](CC(C)C)C(=O)N[C@H](C(=O)N[C@@H](Cc1ccccc1)C(=O)N[C@]1(C)CCCCCCC=CCCC[C@@](C)(C(=O)N[C@@H](CO)C(=O)N[C@@H](C)C(=O)N[C@@H](C)C(N)=O)NC(=O)[C@H](CC2CCC2)NC(=O)[C@H](CC(C)C)NC(=O)[C@@H](CCC(N)=O)NC(=O)[C@H](Cc2c[nH]c3ccccc23)NC(=O)[C@H](Cc2ccc(O)cc2)NC(=O)[C@H](CCC(=O)O)NC1=O)[C@@H](C)O [Q8(D-Gln)] |  | 
3.4 | 40.7 | 136 | CC(=O)N[C@@H](CC(C)C)C(=O)N[C@@H](C(=O)N[C@@H](Cc1ccccc1)C(=O)N[C@]1(C)CCCCCCC=CCCC[C@@](C)(C(=O)N[C@@H](CO)C(=O)N[C@@H](C)C(=O)N[C@@H](C)C(N)=O)NC(=O)[C@H](CC2CCC2)NC(=O)[C@H](CC(C)C)NC(=O)[C@H](CCC(N)=O)NC(=O)[C@H](Cc2c[nH]c3ccccc23)NC(=O)[C@H](Cc2ccc(O)cc2)NC(=O)[C@H](CCC(=O)O)NC1=O)[C@H](C)O [T2(D-Thr)] |  | 
0.6 | 41.0 | 30 | CC(=O)N[C@@H](CC(C)C)C(=O)N[C@H](C(=O)N[C@@H](Cc1ccccc1)C(=O)N[C@]1(C)CCCCCCC=CCCC[C@@](C)(C(=O)N[C@@H](CO)C(=O)N[C@@H](C)C(=O)N[C@@H](C)C(N)=O)NC(=O)[C@H](CC2CCC2)NC(=O)[C@H](CC(C)C)NC(=O)[C@H](CCC(N)=O)NC(=O)[C@@H](Cc2c[nH]c3ccccc23)NC(=O)[C@H](Cc2ccc(O)cc2)NC(=O)[C@H](CCC(=O)O)NC1=O)[C@@H](C)O [W6(D-Trp) (MP-384)] |  | 
3.2 | 43.2 | 286 | CC(=O)N[C@@H](CC(C)C)C(=O)N[C@H](C(=O)N[C@@H](Cc1ccccc1)C(=O)N[C@]1(C)CCCCCCC=CCCC[C@@](C)(C(=O)N[C@@H](CO)C(=O)N[C@@H](C)C(=O)N[C@@H](C)C(N)=O)NC(=O)[C@H](CC2CCC2)NC(=O)[C@H](CC(C)C)NC(=O)[C@H](CCC(N)=O)NC(=O)[C@H](Cc2c[nH]c3ccccc23)NC(=O)[C@@H](Cc2ccc(O)cc2)NC(=O)[C@H](CCC(=O)O)NC1=O)[C@@H](C)O [Y6 (D-Tyr)] |  | 
